Experimental data published in ChEMBL document CHEMBL1201862, “PubChem BioAssay data set” (2004).
Activity calls are given as the source filed them.

Experiments:
[1] = biological target: T1, Tyrosine-protein phosphatase non-receptor type 7 (Homo sapiens, UniProt P35236); assay type: functional
T1 sequence (P35236 whole entry): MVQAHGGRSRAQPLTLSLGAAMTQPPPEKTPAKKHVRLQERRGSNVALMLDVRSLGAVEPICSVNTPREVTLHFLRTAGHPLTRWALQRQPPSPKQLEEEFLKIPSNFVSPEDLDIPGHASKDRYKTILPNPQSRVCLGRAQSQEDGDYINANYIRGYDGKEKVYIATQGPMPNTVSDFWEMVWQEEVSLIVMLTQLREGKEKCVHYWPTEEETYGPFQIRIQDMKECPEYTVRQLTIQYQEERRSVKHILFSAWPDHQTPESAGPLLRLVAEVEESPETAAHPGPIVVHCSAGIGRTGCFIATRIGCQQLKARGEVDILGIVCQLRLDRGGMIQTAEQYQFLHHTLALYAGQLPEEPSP

[2] = biological target: T2, Dual specificity protein phosphatase 6 (Rattus norvegicus, UniProt Q64346); assay type: functional
T2 sequence (Q64346 whole entry): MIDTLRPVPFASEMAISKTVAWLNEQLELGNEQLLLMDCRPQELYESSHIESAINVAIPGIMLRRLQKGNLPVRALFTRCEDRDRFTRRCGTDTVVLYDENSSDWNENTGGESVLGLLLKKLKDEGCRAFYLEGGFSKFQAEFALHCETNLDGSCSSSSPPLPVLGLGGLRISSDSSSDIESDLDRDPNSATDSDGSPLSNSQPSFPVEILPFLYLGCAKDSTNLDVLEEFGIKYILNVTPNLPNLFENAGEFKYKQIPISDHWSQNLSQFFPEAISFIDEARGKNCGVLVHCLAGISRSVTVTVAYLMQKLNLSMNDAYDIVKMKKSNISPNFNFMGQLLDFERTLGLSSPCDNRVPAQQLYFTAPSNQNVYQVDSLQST

[3] = biological target: Glyceraldehyde-3-phosphate dehydrogenase (Homo sapiens, UniProt P04406)
Chain of Glyceraldehyde-3-phosphate dehydrogenase (P04406 whole entry): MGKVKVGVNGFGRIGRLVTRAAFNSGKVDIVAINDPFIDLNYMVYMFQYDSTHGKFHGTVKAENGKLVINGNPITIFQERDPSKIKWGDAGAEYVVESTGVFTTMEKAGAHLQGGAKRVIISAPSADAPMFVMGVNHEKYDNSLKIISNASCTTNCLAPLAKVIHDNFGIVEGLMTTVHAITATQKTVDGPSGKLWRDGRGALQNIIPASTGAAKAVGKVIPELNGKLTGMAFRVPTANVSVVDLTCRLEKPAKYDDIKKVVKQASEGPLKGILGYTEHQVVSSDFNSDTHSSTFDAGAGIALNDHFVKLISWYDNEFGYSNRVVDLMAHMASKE

[4] = biological target: T2, Dual specificity protein phosphatase 6
[5] = viability of uninfected HEp-2 cells – cell-based, HTS, cytotoxicity control for RSV inhibitor project, dose response (AID 2410); assay type: functional; conditions: human respiratory syncytial virus
Caspase-7 = Caspase-7 (Homo sapiens, UniProt P55210); experiment: potency of procaspase-7 enzyme activation – biochemical, absorbance, human, dual procaspase-3/-7 activator project, dose response (AID 504330)
Caspase-3 = biological target: T3, Caspase-3 (Homo sapiens, UniProt P42574); experiment: activators of human procaspase-3 D3A mutant – biochemical, absorbance, PC-3 D3A mutant, counter-screen for dual procaspase-3/7 activator project, dose response (AID 504328)
T3 sequence (P42574 whole entry): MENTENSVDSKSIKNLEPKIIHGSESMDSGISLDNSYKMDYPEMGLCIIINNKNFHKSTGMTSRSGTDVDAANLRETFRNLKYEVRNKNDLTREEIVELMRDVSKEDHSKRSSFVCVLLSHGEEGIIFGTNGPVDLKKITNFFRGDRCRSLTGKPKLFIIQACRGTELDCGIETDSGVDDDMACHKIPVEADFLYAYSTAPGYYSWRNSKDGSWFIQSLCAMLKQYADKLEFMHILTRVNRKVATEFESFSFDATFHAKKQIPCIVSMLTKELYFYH

[6] = biological target: Eukaryotic translation initiation factor 4H (Homo sapiens, UniProt Q15056); experiment: eIF4H binding inhibition – biochemical, uHTS, fluorescence polarization, translation initiation inhibitor project, primary screen (AID 2012)
[7] = fluconazole-exposed Candida albicans growth modulators – fluorescence, retest, confirmation (AID 2467); assay type: functional, cell-based
[8] = biological target: Polyadenylate-binding protein 1 (Homo sapiens, UniProt P11940); experiment: blockers of PABP interaction with poly(A) – biochemical, fluorescence polarization, […] (AID 2014)
Genome polyprotein = Genome polyprotein (dengue virus type 2, UniProt P29990); experiment: flavivirus cap methylation enzyme inhibition – biochemical, confirmation dose response, primary screen (AID 588689); assay type: functional
[9] = NIH-3T3 fibroblast cytotoxicity, dose response, cytotoxicity control, cell-based, fluorescence, Alamar Blue, secondary assay (AID 2327); assay type: functional;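 further: NIH-3T3 mouse fibroblasts cultured with fluconazole at 8 µg/mL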
Protein Tat = Protein Tat (Human immunodeficiency virus type 1 group M subtype B (isolate HXB2)(HIV-1), UniProt P04608); assay type: functional;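 further: tat binding to TAR RNA read out by fluorescence polarization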
Chain of Protein Tat (P04608 whole entry): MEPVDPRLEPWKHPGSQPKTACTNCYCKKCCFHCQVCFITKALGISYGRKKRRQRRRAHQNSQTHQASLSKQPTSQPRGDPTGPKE

[10] = biological target: Voltage-gated N-type calcium channel alpha-1B subunit/Amyloid beta A4 precursor protein-binding family A member 1 (Homo sapiens, UniProt Q00975+Q02410); experiment: disruptors of Mint-PDZ/N-type channel peptide interaction – biochemical, HTRF, set 2, SAR follow-up (AID 434980); assay type: functional
Chain of Voltage-gated N-type calcium channel alpha-1B subunit/Amyloid beta A4 precursor protein-binding family A member 1 (Q00975 whole entry): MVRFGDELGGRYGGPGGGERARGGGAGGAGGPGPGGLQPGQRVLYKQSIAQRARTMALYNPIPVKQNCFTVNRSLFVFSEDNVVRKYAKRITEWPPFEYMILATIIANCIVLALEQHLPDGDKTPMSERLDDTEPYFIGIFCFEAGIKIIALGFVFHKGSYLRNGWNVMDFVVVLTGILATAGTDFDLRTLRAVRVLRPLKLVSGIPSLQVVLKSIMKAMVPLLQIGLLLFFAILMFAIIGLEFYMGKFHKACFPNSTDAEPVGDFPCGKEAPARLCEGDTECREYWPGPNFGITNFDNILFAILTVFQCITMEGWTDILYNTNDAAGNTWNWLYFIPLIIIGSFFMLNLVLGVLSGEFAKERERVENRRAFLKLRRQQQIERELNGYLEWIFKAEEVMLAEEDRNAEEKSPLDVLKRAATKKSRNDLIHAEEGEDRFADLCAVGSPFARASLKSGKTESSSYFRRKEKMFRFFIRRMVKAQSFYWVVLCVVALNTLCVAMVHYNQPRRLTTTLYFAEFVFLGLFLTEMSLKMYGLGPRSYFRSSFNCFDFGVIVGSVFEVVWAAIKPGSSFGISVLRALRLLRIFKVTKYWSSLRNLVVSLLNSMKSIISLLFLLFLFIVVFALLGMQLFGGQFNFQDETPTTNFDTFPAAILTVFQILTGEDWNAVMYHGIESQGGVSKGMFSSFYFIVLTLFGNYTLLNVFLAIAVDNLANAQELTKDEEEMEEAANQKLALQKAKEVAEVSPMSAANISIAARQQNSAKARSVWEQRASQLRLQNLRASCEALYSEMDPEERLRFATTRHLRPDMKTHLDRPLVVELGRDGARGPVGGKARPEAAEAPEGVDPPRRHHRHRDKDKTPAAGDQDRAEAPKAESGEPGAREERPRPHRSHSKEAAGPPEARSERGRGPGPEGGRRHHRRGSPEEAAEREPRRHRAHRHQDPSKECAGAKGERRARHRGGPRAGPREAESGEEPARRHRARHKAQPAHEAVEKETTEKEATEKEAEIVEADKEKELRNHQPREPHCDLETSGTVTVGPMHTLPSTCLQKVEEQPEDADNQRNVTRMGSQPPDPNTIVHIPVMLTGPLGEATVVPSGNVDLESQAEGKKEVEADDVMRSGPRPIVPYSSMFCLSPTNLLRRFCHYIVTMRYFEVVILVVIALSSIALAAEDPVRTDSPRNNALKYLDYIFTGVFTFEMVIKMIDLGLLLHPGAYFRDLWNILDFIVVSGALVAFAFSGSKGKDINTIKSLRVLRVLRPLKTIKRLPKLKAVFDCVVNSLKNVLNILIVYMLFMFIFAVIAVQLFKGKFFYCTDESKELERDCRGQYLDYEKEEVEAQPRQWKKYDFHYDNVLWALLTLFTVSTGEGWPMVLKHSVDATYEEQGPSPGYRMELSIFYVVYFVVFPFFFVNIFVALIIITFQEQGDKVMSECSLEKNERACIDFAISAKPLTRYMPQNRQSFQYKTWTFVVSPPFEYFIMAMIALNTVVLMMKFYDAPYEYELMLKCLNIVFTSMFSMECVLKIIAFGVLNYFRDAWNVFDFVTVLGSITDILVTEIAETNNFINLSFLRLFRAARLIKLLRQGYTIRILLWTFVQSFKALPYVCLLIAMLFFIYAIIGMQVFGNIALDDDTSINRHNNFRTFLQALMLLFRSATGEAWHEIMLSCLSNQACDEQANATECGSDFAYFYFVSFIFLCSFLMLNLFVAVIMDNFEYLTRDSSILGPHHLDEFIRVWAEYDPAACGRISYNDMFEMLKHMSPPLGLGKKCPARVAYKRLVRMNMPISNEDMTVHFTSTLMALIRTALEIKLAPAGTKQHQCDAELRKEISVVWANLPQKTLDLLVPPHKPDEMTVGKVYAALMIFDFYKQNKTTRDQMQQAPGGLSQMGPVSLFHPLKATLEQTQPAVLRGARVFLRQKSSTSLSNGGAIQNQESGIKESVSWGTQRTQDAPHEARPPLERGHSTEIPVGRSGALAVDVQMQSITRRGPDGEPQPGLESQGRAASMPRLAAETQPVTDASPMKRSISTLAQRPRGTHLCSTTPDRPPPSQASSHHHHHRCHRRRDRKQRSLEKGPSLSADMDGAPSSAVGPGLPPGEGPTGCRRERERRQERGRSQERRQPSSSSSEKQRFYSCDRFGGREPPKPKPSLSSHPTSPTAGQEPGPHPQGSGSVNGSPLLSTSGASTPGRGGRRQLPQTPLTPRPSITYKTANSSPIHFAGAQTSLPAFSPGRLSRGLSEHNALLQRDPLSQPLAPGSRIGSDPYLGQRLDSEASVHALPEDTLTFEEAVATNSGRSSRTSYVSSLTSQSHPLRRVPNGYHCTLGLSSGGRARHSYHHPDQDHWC
Chain of Voltage-gated N-type calcium channel alpha-1B subunit/Amyloid beta A4 precursor protein-binding family A member 1 (Q02410 whole entry): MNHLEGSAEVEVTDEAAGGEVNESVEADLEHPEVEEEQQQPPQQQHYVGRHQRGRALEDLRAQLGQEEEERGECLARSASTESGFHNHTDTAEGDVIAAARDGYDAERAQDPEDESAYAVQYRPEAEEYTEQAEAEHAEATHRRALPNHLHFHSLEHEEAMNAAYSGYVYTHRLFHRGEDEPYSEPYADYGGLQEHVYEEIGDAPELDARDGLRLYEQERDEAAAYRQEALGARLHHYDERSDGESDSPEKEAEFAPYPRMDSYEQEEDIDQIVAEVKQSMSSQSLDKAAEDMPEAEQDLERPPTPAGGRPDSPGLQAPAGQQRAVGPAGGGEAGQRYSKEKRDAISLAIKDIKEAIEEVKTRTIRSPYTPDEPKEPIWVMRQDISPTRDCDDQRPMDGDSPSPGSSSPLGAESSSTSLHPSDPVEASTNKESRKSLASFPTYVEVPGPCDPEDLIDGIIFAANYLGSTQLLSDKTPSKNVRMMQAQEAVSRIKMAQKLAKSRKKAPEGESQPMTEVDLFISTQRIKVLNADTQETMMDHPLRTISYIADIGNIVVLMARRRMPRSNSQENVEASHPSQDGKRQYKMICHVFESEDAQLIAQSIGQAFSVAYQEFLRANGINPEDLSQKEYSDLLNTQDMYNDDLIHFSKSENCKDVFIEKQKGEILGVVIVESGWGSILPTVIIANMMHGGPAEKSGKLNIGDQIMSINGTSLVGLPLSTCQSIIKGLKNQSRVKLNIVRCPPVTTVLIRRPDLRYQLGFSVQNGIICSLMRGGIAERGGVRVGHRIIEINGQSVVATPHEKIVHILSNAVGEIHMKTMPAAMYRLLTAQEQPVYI

[11] = biological target: Neuropeptides B/W receptor type 1 (Homo sapiens, UniProt P48145); experiment: Fluorescence-based dose response cell-based high throughput screening assay to identify antagonists of the G-protein coupled receptor 7 (GPR7). [Related pubchem assays: 1952 (Screening assay (GPR7 antagonists).), 1880 (Summary AID.)]; assay type: functional
Chain of Neuropeptides B/W receptor type 1 (P48145 whole entry): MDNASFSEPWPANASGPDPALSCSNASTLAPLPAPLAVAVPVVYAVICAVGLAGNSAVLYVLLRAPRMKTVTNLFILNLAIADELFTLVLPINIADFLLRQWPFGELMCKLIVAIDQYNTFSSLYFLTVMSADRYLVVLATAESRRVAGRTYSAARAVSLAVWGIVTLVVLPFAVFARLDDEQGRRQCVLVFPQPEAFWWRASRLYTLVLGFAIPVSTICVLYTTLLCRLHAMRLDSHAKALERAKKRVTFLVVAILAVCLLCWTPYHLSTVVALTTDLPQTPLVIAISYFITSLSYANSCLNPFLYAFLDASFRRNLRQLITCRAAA

[12] = biological target: Melanin-concentrating hormone receptor 1 (Homo sapiens, UniProt Q99705); experiment: Fluorescence-based counterscreen for antagonists of the G-protein coupled receptor 7 (GPR7): cell-based high throughput dose response assay to identify antagonists of the melanin-concentrating hormone receptor 1 (MCHR1).; assay type: functional
Chain of Melanin-concentrating hormone receptor 1 (Q99705 whole entry): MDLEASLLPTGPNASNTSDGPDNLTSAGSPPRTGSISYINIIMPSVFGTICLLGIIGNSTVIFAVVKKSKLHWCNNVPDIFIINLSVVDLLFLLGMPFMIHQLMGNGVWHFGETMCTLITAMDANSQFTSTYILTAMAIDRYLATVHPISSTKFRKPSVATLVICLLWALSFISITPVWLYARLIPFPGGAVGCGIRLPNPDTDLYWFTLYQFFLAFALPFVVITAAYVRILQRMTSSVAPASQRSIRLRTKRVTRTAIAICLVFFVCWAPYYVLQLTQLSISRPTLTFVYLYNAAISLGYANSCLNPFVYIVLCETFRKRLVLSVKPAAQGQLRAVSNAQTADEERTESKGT

H9c2 = experiment: cells; assay type: functional, cell-based; conditions: Rattus norvegicus, H9c2, Myocardium;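 further: confirmatory concentration-response retest of ultra-high-throughput screening hits for modulation of myocardial damage; cell death induced by hydrogen peroxide oxidative stress; compound pretreatment for 60 min then peroxide exposure for 2 h; potency is for protecting the cells against peroxide damage rather than for killing them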
[13] = biological target: T4, Sentrin-specific protease 1 (Homo sapiens, UniProt Q9P0U3); experiment: Dose response confirmation of small molecule inhibitors of the catalytic domain of the SUMO protease, SENP1 in a FRET assay.; assay type: functional; conditions: read-out: IC50_Mean
T4 sequence (Q9P0U3 whole entry): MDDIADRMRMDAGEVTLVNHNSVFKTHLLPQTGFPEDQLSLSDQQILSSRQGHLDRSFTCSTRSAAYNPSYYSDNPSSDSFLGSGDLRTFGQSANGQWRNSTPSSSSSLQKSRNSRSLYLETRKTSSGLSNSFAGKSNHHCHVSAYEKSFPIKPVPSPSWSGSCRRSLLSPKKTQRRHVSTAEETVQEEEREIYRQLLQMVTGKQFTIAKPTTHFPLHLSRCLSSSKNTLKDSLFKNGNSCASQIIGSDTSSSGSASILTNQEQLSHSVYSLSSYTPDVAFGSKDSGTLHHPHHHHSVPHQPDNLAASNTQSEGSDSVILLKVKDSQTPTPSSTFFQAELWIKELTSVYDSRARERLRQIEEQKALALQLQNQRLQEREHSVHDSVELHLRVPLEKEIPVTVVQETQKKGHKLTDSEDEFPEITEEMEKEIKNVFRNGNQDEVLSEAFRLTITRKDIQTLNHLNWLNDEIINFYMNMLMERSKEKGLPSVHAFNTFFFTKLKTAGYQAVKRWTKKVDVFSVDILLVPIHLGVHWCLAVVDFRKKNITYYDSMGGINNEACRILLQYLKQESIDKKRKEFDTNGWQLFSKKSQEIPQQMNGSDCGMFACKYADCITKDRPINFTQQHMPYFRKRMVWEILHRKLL

Protein Rev = Protein Rev (Human immunodeficiency virus type 1 group M subtype B (isolate HXB2)(HIV-1), UniProt P04618); experiment: blockers of HIV Rev/RRE RNA complex – biochemical, fluorescence polarization, HIV-1, dose response (AID 434976); set-up: species or system Human immunodeficiency virus 1
[14] = biological target: Female germline-specific tumor suppressor gld-1 (Caenorhabditis elegans, UniProt Q17339); experiment: blockers of GLD-1/TGE RNA complex formation – biochemical, fluorescence polarization, C. elegans, dose response (AID 2802);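 further: fluorescence polarization of labeled TGE RNA bound by purified gld-1 protein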
Estrogen receptor beta = Estrogen receptor beta (Homo sapiens, UniProt Q92731);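 further: recombinant ER-beta bound to coactivator SRC1 peptide in presence of estradiol agonist; inhibitors block coactivator peptide binding and lower the FRET signal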
[15] = biological target: T4, Sentrin-specific protease 1; experiment: SENP1 catalytic domain blockers, concentration series – biochemical, kinetic FRET, dose response (AID 651697); assay type: functional; conditions: read-out: IC50_Mean
[16] = viability of PTEN-deleted HCT116 cells – cell-based, HCT116 PTEN knockout, dose response (AID 1047); assay type: functional;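 further: HCT116 colon tumor cells with PTEN knocked out; cells exposed to compound for 60 hours before readout; potency for loss of cell viability measured by luminescence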
X-box-binding protein 1 = X-box-binding protein 1 (Homo sapiens, UniProt P17861); assay type: functional, Cricetulus griseus;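 further: confirmatory dose-response counter-screen serving a CHOP assay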
Chain of X-box-binding protein 1 (P17861 whole entry): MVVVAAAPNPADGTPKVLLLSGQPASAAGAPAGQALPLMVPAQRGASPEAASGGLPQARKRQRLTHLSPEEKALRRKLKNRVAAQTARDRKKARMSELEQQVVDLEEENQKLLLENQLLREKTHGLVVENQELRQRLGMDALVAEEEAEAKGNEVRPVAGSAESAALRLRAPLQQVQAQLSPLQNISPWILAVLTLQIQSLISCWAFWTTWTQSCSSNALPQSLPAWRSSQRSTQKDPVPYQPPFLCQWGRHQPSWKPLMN

[17] = viability of HCT116 lacking mutant beta-catenin – cell-based, human colon tumor, dose response (AID 1045); assay type: functional;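 further: HCT116 colon tumor cells with beta catenin knocked out; cells exposed to compound for 60 hours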
Cytochrome P450 2C9 = Cytochrome P450 2C9 (Homo sapiens, UniProt P11712); conditions: Potency
Cytochrome P450 2D6 = Cytochrome P450 2D6 (Homo sapiens, UniProt P10635); experiment: qHTS Assay for Inhibitors and Substrates of Cytochrome P450 2D6. [Related pubchem assays: 410 ]; assay type: ADME; conditions: read-out: Potency
Chain of Cytochrome P450 2D6 (P10635 whole entry): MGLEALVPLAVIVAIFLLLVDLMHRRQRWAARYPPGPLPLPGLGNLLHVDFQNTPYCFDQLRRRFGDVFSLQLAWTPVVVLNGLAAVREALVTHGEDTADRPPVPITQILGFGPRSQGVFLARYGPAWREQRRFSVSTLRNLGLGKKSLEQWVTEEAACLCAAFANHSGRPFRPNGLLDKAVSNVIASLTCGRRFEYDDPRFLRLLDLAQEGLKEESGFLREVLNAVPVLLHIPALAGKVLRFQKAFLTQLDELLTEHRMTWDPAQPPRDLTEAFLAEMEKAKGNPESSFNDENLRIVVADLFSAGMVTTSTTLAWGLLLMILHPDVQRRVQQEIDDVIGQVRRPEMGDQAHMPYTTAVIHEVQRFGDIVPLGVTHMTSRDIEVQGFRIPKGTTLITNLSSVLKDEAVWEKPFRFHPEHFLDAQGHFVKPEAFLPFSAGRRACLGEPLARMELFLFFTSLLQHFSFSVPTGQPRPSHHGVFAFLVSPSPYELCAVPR

For `O=C(O)C1Nc2cc(C(F)(F)F)ccc2S(=O)(=O)N1` (stereo not drawn), the IC50 [1] was > 100 µM (not active), the IC50 [2] was > 100 µM (inactive) and the IC50 [3] was > 100 µM (not active). The IC50 [4] was > 100 µM (inactive).
With `COc1cc2c(cc1OC)C(C)N(C(=O)c1cc3c(s1)-c1ccccc1OC3)CC2` (stereo not drawn) the CC50 [5] was 27.4 µM (active), the EC50 (Caspase-7) was > 85.3 µM (inactive) and the EC50 (Caspase-3) was > 85.3 µM (inactive).
For `Oc1ccc(/C=N/NP(=S)(c2ccccc2)c2ccccc2)c(O)c1O`, the IC50 [6] was 65.3 µM (active), the EC50 [7] was > 38 µM (not active) and the IC50 [8] was > 100 µM (inactive). The IC50 (Genome polyprotein) was > 100 µM (active), the EC50 [9] was > 150 µM (inactive) and the IC50 (Protein Tat) was 25.3 µM (inconclusive).
For `O=C(NCCCO)c1cc(-c2ccco2)nc2ccccc12`, the IC50 [10] was > 56.8 µM (inactive).
For `Nc1c(C(=O)NCc2ccc3c(c2)OCO3)nnn1Cc1ccc(Br)cc1`, the IC50 [11] was > 43.8 µM (not active) and the IC50 [12] was > 43.8 µM (not active).
With `COc1ccc(Nc2nnc(SCc3cc(=O)n4ccsc4n3)s2)cc1` the CC50 [5] was 36.5 µM (active), the IC50 (H9c2) was 7.45 µM (active) and the IC50 [13] was 16.3 µM (active). The IC50 (Protein Rev) was > 75.4 µM (not active), the IC50 [14] was 45.5 µM (inactive) and the IC50 (Estrogen receptor beta) was > 50 µM (not active). For the same compound, the IC50 [15] was 26.2 µM (inactive).
For `COc1ccc(-c2[nH]ncc2/C=C(/C#N)C(=O)NC2CCCCCC2)cc1`, the EC50 [16] was 12.6 µM (active), the “Absolute IC50 (XBP1)” value (X-box-binding protein 1) was 10 µM and the EC50 [17] was 11.3 µM (active).
For `NCCC[C@@H](CC(=O)N[C@@H]1CCCC[C@H]1C(=O)N[C@H](CC(=O)N[C@@H](CCC(=O)O)CC(=O)O)Cc1c[nH]c2ccccc12)NC(=O)C[C@H](CO)NC(=O)[C@@H]1CNCC[C@H]1N`, the AC50 (Cytochrome P450 2C9) was 12.6 µM (inconclusive) and the AC50 (Cytochrome P450 2D6) was 39.8 µM (inconclusive).
